Source: US9248131B2, “Aquaporin modulators and methods of using them for the treatment of edema and fluid imbalance” (THE ARIZONA BOARD OF REGENTS ON BEHALF OF THE UNIVERSITY OF …, priority 2006, dated 2016)

Assays:
AQP4 = target: T1, AQP4 (Homo sapiens, UniProt P55087); assay: Oocyte swelling assay: water permeability (Pf) of AQP4-expressing oocytes by videomicroscopy, block or % stimulation; format: cell-based; conditions: for AQP-4 effect: comparison with bumetanide (in words): relative to bumetanide
T1 construct: expressed in transfected cells; host or cells: Xenopus oocytes
Source text: (§1) A method for screening compounds for their ability to modulate aquaporin activity based on a water permeability assay in Xenopus oocytes expressing aquaporins which is used to identify, assess, and characterize compounds that either block or stimulate the aquaporin channels including AQP1, AQP4 and AQP9 channels.
(§2) Selection rationale and methodology. The ability of compounds, analogs and/or agents to block an aquaporin channel was quantified by videomicroscopic analyses of cross-sectional area of AQP-expressing oocytes as a function of time in a defined osmotic gradient, allowing the calculation of the water permeability factor (Pf), statistical evaluation of significant differences in the rate of water entry, and definition of dose response curves with IC50 values (concentration required for half-maximal block).
(§3) This compound evaluation method has been utilized with AQP1,-4,-5, and -9 channels. Observations of channel stimulation were made using the same assay method, however, the results were reported as % stimulation over control at a given concentration. […] TEA is known as a blocker of K^+ channel subtypes and nicotinic acetylcholine receptors. TEA sensitivity of AQP1 was removed by site-directed mutagenesis of tyrosine 186 to phenylalanine (Y186F) in the outer vestibule of the water pore, and confirmed that the inhibitory action of TEA is not due to nonspecific effects on endogenous channels (Brooks et al., 2000).

AQP1 = target: T2, AQP1 (Homo sapiens, UniProt P29972); assay: Oocyte swelling assay: water permeability (Pf) of AQP1-expressing oocytes, block or % stimulation; format: cell-based; set-up: expressed in transfected cells; host or cells: Xenopus oocytes
T2 sequence (P29972 1-269): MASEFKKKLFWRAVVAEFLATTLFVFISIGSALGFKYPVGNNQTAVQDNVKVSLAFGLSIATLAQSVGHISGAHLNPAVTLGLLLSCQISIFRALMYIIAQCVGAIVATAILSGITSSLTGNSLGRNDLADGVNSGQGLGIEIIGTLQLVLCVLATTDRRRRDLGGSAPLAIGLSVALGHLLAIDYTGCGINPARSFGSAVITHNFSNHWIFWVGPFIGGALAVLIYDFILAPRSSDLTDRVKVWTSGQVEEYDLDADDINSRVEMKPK
Source text: as §1, §2, §3

[1] = tested on: astrocytes expressing AQP4; conditions: cited from earlier work
[2] = ↓ block, ↑ activation, ═ no effect, symbols not defined in the table

T1 sequence (P55087 whole entry, species assumed): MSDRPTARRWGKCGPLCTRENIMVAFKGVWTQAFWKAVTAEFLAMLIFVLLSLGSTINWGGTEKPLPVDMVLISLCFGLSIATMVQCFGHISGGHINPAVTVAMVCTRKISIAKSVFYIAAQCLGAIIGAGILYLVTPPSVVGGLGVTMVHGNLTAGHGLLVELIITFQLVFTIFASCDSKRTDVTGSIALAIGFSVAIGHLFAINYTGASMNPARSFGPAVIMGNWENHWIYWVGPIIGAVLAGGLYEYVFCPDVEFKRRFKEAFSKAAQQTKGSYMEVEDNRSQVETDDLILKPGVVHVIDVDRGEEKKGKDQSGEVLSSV

In the case of `CCCCNc1cc(C(=O)NCCN2CCS(=O)(=O)CC2)cc(S(N)(=O)=O)c1Oc1ccccc1` [AQP-0009], the “AQP-4 effect: % activation” value (AQP4; 10 μM given extracellularly) is reported as 60% and the “AQP-4 effect (arrow symbol)” value (AQP4; [2]) is reported as “↑”.
In the case of `COC(=O)c1cc(S(N)(=O)=O)c(Cl)cc1NCc1ccco1` [drawing 114], the “AQP-1 effect (arrow symbol)” value (AQP1; arrow symbols, key not given) is reported as “↓↓” and the “AQP-4 effect (arrow symbol)” value (AQP4; arrow symbols, key not given) is reported as “═”.
In the case of `CCCCNc1cc(C(=O)NCCN2CCOCC2)cc(S(N)(=O)=O)c1Oc1ccccc1`, the “AQP-4 effect (in words)” value (AQP4; at 10 μM) is reported as “Some agonist trend at 10 μM”.
In the case of `[Pb]` [lead], the “increase in water permeability (Pf)” value [1] is listed as 40%.
In the case of `CCCCNc1cc(C(=O)Nc2ccncc2)cc(S(N)(=O)=O)c1Oc1ccccc1` [AQP-0013], the “AQP-4 effect: % block” value (AQP4; 10 μM extracellularly) is reported as 80% and the “AQP-4 effect (arrow symbol)” value (AQP4; [2]) is reported as “↓↓”.
For `CCCCNc1cc(C(=O)OC)cc(S(N)(=O)=O)c1Oc1ccccc1` [AQP-0001, bumetanide methyl ester], the “AQP-4 effect: % block” value (AQP4; 1 μM extracellularly) was −30%, the “AQP-4 effect: potency compared with bumetanide (in words)” value (AQP4; extracellularly) was “Improved potency over bumetanide” and the “AQP-4 effect (arrow symbol)” value (AQP4; [2]) was “↓↓”.
For `NS(=O)(=O)c1cc(C(=O)O)c(Cl)cc1NCc1ccco1`, the “AQP-4 effect (in words)” value (AQP4; at 100 μM) was “Significant Agonist Effect at 100 μM”.
With `CCCCNc1c(Oc2ccccc2)cc(S(N)(=O)=O)cc1C(=O)O` [drawing 94] the “AQP-4 effect: % block” value (AQP4; at 100 μM) was −35% block at 100 μM.
In the case of `CCCCNc1c(Oc2ccccc2)cc(S(N)(=O)=O)cc1C(=O)OC`, the “AQP-4 effect: % block” value (AQP4; at 1 μM extracellularly) is reported as −30% and the “AQP-4 effect: comparison with bumetanide (in words)” value (AQP4) is reported as “Improved potency over bumetanide”.
With `CCCCNc1cc(C(=O)NCCCN2CCN(C)CC2)cc(S(N)(=O)=O)c1Oc1ccccc1` the “AQP-4 effect (in words)” value (AQP4; at 10 μM) was “No Significant effect at 10 μM”.
With `CCCCNc1cc(C(=O)Nc2ccncc2)cc(S(N)(=O)=O)c1Oc1ccccc1` [drawing 107] the “AQP-4 effect: % block” value (AQP4; at 10 μM) was 80% and the “toxicity observed in AQP-4 test” value (AQP4; at 10 μM) was “some toxicity observed”.
With `CCCCNc1cc(C(=O)NCCN2CCS(=O)(=O)CC2)cc(S(N)(=O)=O)c1Oc1ccccc1` [drawing 103] the “AQP-4 effect: % activation” value (AQP4; at 10 μM) was 60% activation at 10 μM.
For `NS(=O)(=O)c1cc(C(=O)O)c(NCc2ccco2)cc1Cl` [drawing 117], the “AQP-1 effect (arrow symbol)” value (AQP1; arrow symbols, key not given) was “═” and the “AQP-4 effect (arrow symbol)” value (AQP4; arrow symbols, key not given) was “? ↑”.
In the case of `CCCCNc1cc(C(=O)NCCN2CCN(C)CC2)cc(S(N)(=O)=O)c1Oc1ccccc1` [AQP-0007], the “AQP-4 effect: % activation” value (AQP4; 10 μM given extracellularly) is reported as 110% and the “AQP-4 effect (arrow symbol)” value (AQP4; [2]) is reported as “↑↑”.
For `NS(=O)(=O)c1cc(C(=O)O)c(NCc2ccco2)cc1Cl` [furosemide, Furosemide, reference compound], the “AQP-1 effect (arrow symbol)” value (AQP1; ↓ block, ↑ stimulation, ═ no effect, symbols not defined in the table) was “═”, the “AQP-4 effect: % block” value (AQP4; 15 μM given intracellularly) was 75% and the “AQP-4 effect (in words)” value (AQP4; 100 μM extracellularly) was “Modest effect”. The “block of swelling rate in AQP4-expressing oocytes” value (AQP4; extracellular application) was “less effective then bumetanide”, the “block of swelling in AQP4-expressing oocytes” value (AQP4; internal injection into the oocyte (intracellular)) was “improved block at lower concentrations” and the “AQP-4 effect (arrow symbol)” value (AQP4; [2]) was “↓↓”.
With `CCCCNc1cc(C(=O)NCCN2CCN(C)CC2)cc(S(N)(=O)=O)c1Oc1ccccc1` [drawing 101] the “AQP-4 effect: % activation” value (AQP4; at 10 μM) was 110% activation at 10.
In the case of `CCCCNc1cc(C(=O)NCc2ccncc2)cc(S(N)(=O)=O)c1Oc1ccccc1`, the “AQP-4 effect (in words)” value (AQP4; at 10 μM) is reported as “No Significant effect at 10 μM”.
In the case of `NS(=O)(=O)c1cc2c(=O)ncn(Cc3ccco3)c2cc1Cl`, the “AQP-4 effect (in words)” value (AQP4; at 100 μM) is reported as “p > 0.05 No significant Antagonist Effect at 100 μM”.
For `CCCCNc1cc(C(=O)NCCN2CCN(CCN)CC2)cc(S(N)(=O)=O)c1Oc1ccccc1`, the “AQP-4 effect (in words)” value (AQP4; at 10 μM) was “No Significant effect at 10 μM”.
With `CCCCNc1c(Oc2ccccc2)cc(S(=O)(=O)NC)cc1C(=O)O` the “AQP-4 effect: % block” value (AQP4; at 100 μM) was −40% and the “AQP-4 effect: comparison with bumetanide (in words)” value (AQP4) was “Improved block”.
For `CCCCNc1c(Oc2ccccc2)cc(S(N)(=O)=O)cc1C(=O)O` [Bumetanide AQP-0000], the “AQP-4 effect: % block / antagonist trend” value (AQP4; 100 μM, route not stated) was −35% and the “AQP-4 effect (arrow symbol)” value (AQP4; [2]) was “↓”.
